Experimental data as given in PubChem BioAssay (NCI).
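Results reflect a 48-hour exposure of cells in 96-well plates to compound at five concentrations. GI50 is the concentration that inhibits growth by half. The concentration for full growth arrest is given as TGI.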

What was measured:
Test in all cases: NCI anticancer screen, dose series, 48 h
[1] = tested on: DU-145 prostate
[2] = tested on: MDA-MB-231 breast
[3] = tested on: SNB-75 CNS
[4] = tested on: OVCAR-5 ovarian
[5] = tested on: MCF7 breast
[6] = tested on: MDA-MB-468 breast
[7] = tested on: MALME-3M melanoma
[8] = tested on: OVCAR-4 ovarian
[9] = tested on: KM12 colon
[10] = tested on: RPMI-8226 leukemia
[11] = tested on: HL-60(TB) leukemia
[12] = tested on: NCI-H23 lung
[13] = tested on: SF-295 CNS
[14] = tested on: CAKI-1 renal
[15] = tested on: OVCAR-3 ovarian
[16] = tested on: TK-10 renal
[17] = tested on: LOX IMVI melanoma
[18] = tested on: HS 578T breast
[19] = tested on: SNB-19 CNS
[20] = tested on: UACC-257 melanoma
[21] = tested on: SK-MEL-5 melanoma
[22] = tested on: SW-620 colon
[23] = tested on: HCC-2998 colon
[24] = tested on: HOP-62 NSCLC
[25] = tested on: SK-MEL-28 melanoma
[26] = tested on: EKVX NSCLC
[27] = tested on: MOLT-4 leukemia
[28] = tested on: NCI-H226 lung
[29] = tested on: SK-MEL-2 melanoma
[30] = tested on: HCT-116 colon
[31] = tested on: SK-OV-3 ovarian
[32] = tested on: 786-0 renal
[33] = tested on: BT-549 breast
[34] = tested on: U251 CNS
[35] = tested on: HT29 colon
[36] = tested on: COLO 205 colon
[37] = tested on: HOP-92 NSCLC
[38] = tested on: NCI-H460 lung
[39] = tested on: SR leukemia
[40] = tested on: ACHN renal
[41] = tested on: CCRF-CEM leukemia
[42] = tested on: OVCAR-8 ovarian
[43] = tested on: SN12C renal
[44] = tested on: PC-3 prostate
[45] = tested on: A549 NSCLC
[46] = tested on: UACC-62 melanoma
[47] = tested on: SF-539 CNS
[48] = tested on: SF-268 CNS
[49] = tested on: A498 renal
[50] = tested on: RXF 393 renal
[51] = tested on: M14 melanoma
[52] = tested on: T-47D breast
[53] = tested on: IGROV1 ovarian
[54] = tested on: NCI-H522 lung
[55] = tested on: HCT-15 colon
[56] = tested on: UO-31 renal
[57] = tested on: MDA-MB-435
[58] = tested on: K-562 leukemia

`O=c1cc(-c2ccccc2)oc2cc(OCCCCNCc3ccccc3)cc(O)c12` was tested, and the GI50 [1] was 12.2 µM, the TGI [1] was 24.5 µM and the GI50 [2] was 7.02 µM. The TGI [2] was 21.3 µM, the GI50 [3] was 10.5 µM and the TGI [3] was 22.4 µM. It also gave a GI50 [4] of 19 µM, a TGI [4] of 35.7 µM and a GI50 [5] of 3.43 µM. It also gave a TGI [5] of 14.9 µM, a GI50 [6] of 2.55 µM and a TGI [6] of 11.1 µM. The GI50 [7] was 2.19 µM, the TGI [7] was 7.29 µM and the GI50 [8] was 8.92 µM. It also gave a TGI [8] of 23.6 µM, a GI50 [9] of 5.7 µM and a TGI [9] of 18.9 µM. The GI50 [10] was 2.25 µM, the TGI [10] was 6.98 µM and the GI50 [11] was 1.12 µM. For the same compound, the TGI [11] was 3.43 µM, the GI50 [12] was 13.8 µM and the TGI [12] was 27.4 µM. For the same compound, the GI50 [13] was 11.7 µM, the TGI [13] was 24.4 µM and the GI50 [14] was 10.2 µM. It also gave a TGI [14] of 22.3 µM, a GI50 [15] of 12 µM and a TGI [15] of 25 µM. The GI50 [16] was 15.5 µM, the TGI [16] was 29.5 µM and the GI50 [17] was 3.13 µM. The TGI [17] was 11.2 µM, the GI50 [18] was 11 µM and the TGI [18] was 32 µM. It also gave a GI50 [19] of 13.3 µM, a TGI [19] of 27.9 µM and a GI50 [20] of 2.99 µM. The TGI [20] was 9.75 µM, the GI50 [21] was 12.2 µM and the TGI [21] was 24.7 µM. For the same compound, the GI50 [22] was 10.2 µM, the TGI [22] was 23.4 µM and the GI50 [23] was 2.3 µM. The TGI [23] was 5.74 µM, the GI50 [24] was 13.2 µM and the TGI [24] was 27.5 µM. The GI50 [25] was 3.24 µM, the TGI [25] was 9.38 µM and the GI50 [26] was 12.7 µM. For the same compound, the TGI [26] was 25.9 µM, the GI50 [27] was 2.12 µM and the TGI [27] was 9.43 µM. For the same compound, the GI50 [28] was 13.5 µM, the TGI [28] was 32 µM and the GI50 [29] was 16.3 µM. For the same compound, the TGI [29] was 30.2 µM, the GI50 [30] was 4.28 µM and the TGI [30] was 17.2 µM. The GI50 [31] was 14.6 µM, the TGI [31] was 28 µM and the GI50 [32] was 4.54 µM. It also gave a TGI [32] of 18.6 µM, a GI50 [33] of 13.2 µM and a TGI [33] of 26.7 µM. It also gave a GI50 [34] of 6.11 µM, a TGI [34] of 19.1 µM and a GI50 [35] of 2.95 µM. For the same compound, the TGI [35] was 12 µM, the GI50 [36] was 5.13 µM and the TGI [36] was 18.4 µM. For the same compound, the GI50 [37] was 3.73 µM, the TGI [37] was 21.1 µM and the GI50 [38] was 4.96 µM. For the same compound, the TGI [38] was 17.4 µM, the GI50 [39] was 1.79 µM and the TGI [39] was 4.63 µM. It also gave a GI50 [40] of 12.2 µM, a TGI [40] of 26.9 µM and a GI50 [41] of 2.89 µM. It also gave a TGI [41] of 15.8 µM, a GI50 [42] of 12.6 µM and a TGI [42] of 28.7 µM. The GI50 [43] was 12.7 µM, the TGI [43] was 28 µM and the GI50 [44] was 5.01 µM. For the same compound, the TGI [44] was 19.9 µM, the GI50 [45] was 7.94 µM and the TGI [45] was 21.1 µM. For the same compound, the GI50 [46] was 2.16 µM, the TGI [46] was 4.79 µM and the GI50 [47] was 11.7 µM. For the same compound, the TGI [47] was 25.3 µM, the GI50 [48] was 10.6 µM and the TGI [48] was 27 µM. The GI50 [49] was 19.8 µM, the TGI [49] was 36.8 µM and the GI50 [50] was 1.91 µM. For the same compound, the TGI [50] was 10.1 µM, the GI50 [51] was 2.02 µM and the TGI [51] was 4.48 µM. The GI50 [52] was 13.7 µM, the TGI [52] was 33.1 µM and the GI50 [53] was 11.4 µM. For the same compound, the TGI [53] was 26.6 µM, the GI50 [54] was 13.1 µM and the TGI [54] was 29.3 µM. For the same compound, the GI50 [55] was 3.48 µM, the TGI [55] was 12.8 µM and the GI50 [56] was 6.11 µM. The TGI [56] was 21.1 µM, the GI50 [57] was 7.98 µM and the TGI [57] was 20.5 µM. It also gave a GI50 [58] of 1.97 µM and a TGI [58] of 7.35 µM.
